Assay results reported in article PMC2855122 (Journal of immunology (Baltimore, Md. : 1950), 2009).

Test system: HeLa-Kb-A3-47 cells
Assay: Cell-surface HLA-A3 level after transfection with ER targeted precursors
Assay type: cell-based
Details: GAP-A3 staining (Figure 7B)

RVCEKMALY [R-Y]
Surface expression of HLA-A3 after ER targeted peptide: increased the surface expression of HLA-A3
